Bridge positions count the residues as written; N and C are the ends. Peptide text beside a SMILES is read from it.
Experiments:
[1] = test system: Human CMV (Tanaka strain); experiment: Inhibitory activity against human CMV infection and proliferation in HELF cells (fluorescence staining); assay type: cell-based, Human cytomegalo virus; details: 24 hrs., concentration not given
Protocol: (Method) LF derived peptide was dissolved in 2% serum added MEM medium to give five mg/ml solution, filtered and sterilized to make a stock solution. The stock solution was diluted with 2% serum added MEM medium on use. Samples containing human embryo lung fibroblast cells (HELF cells) were suspended in 2% serum added MEM medium and incubated for 10 minutes. The cells were collected by centrifugation, washed twice with 2% serum added MEM medium and suspended in 2% serum added MEM medium. Human cytomegalo virus [Human CMV (Tanaka strain)] was added, incubated for 24 hrs., fluorescence stained with human CMV positive serum and the adsorption rate of human CMV to the cells was determined.
The results are judged from the numbers of fluorescent stained cells per one cover slip.

[2] = test system: influenza virus A/PR/8/34; details: 100 μl of one mg/ml solution in allantoic cavity three hours before virus; average of five eggs
[3] = test system: HIV (HTLV-IIIB); experiment: Inhibitory activity against HIV infection and proliferation in MT-4 cells (indirect fluorescence antibody method); assay type: cell-based, human immunodeficiency virus (HIV); details: three days, positive control 26.0%
Protocol: (Method) Cultured supernatant of MOLT-4/HTLV-IIIB cells, a HTLV-IIIB persistent infected strain of HIV, was used as a viral solution. The supernatant was kept at -80° C. Human T cell line MT-4 was used for the test. MT-4 was subcultured in RPMI 1640 medium containing 10% fetal calf serum (FCS). Sample, LF derived peptide, was dissolved in RPMI 1640 medium and one ml of the diluted solution at various concentrations was added to the cells. The inoculated MT-4 test sample was incubated for 60 minutes and infected with HIV at a concentration of moi […]=0.01 and one ml of the cell solution adjusted at a cell density of 3×10^5 cells/ml was added. The cells were cultured for three days : and HIV infected cells were determined with an indirect fluorescence antibody method.
HIV infected cells were determined by the indirect fluorescence antibody method using HIV infected patient serum as a primary antibody. […] HIV infected MT-4 cells cultured without addition of the sample was used as a positive control and cells without addition of viral solution was cultured to make a negative control group.

[4] = test system: mouse cytomegalo virus (mouse CMV); experiment: In vivo inhibitory activity against mouse CMV infection (survival of mice); details: after 10 days
Protocol: (Method) Male Balbc/AJcl mice, 4-week-old (10 in one group) were used. The sample was dissolved in phosphate buffer saline solution (PBS) and intraperitoneally administered to mice.

Row | Compound | Inhibitory rate of human CMV infection [1] [%] | Inhibitory rate of infection and proliferation of influenza virus [2] [%] | ratio of stained (HIV infected) cells ([3]; sample 63 μg/ml) [%] | ratio of stained (HIV infected) cells ([3]; sample 125 μg/ml) [%] | ratio of stained (HIV infected) cells ([3]; sample 250 μg/ml) [%] | ratio of stained (HIV infected) cells ([3]; sample 500 μg/ml) [%] | ratio of stained (HIV infected) cells ([3]; sample 1,000 μg/ml) [%] | Survival rate ([4]; 0.02 g/kg of body weight i.p. 24 hrs. before mouse CMV) [%] | Survival rate ([4]; 0.05 g/kg of body weight i.p. 24 hrs. before mouse CMV) [%] | Survival rate ([4]; 0.10 g/kg of body weight i.p. 24 hrs. before mouse CMV) [%] | Survival rate ([4]; 0.50 g/kg of body weight i.p. 24 hrs. before mouse CMV) [%]
1 | CSCC[C@@H]1NC(=O)[C@H](CC(N)=O)NC(=O)[C@H](CCCNC(=N)N)NC(=O)[C@H](CCC(N)=O)NC(=O)[C@H](Cc2c[nH]c3ccccc23)NC(=O)[C@H](CCC(N)=O)NC(=O)[C@H](Cc2ccccc2)NC(=O)[C@@H](NC(C)=O)CSSC[C@@H](C(N)=O)NC(=O)[C@H](CO)NC(=O)[C@H](C(C)C)NC(=O)[C@@H]2CCCN2C(=O)[C@@H]2CCCN2C(=O)CNC(=O)[C@H](CCCNC(=N)N)NC(=O)[C@H](C(C)C)NC(=O)[C@H](CCCCN)NC(=O)[C@H](CCCNC(=N)N)NC1=O [Ac-human LF (20-37)-NH2, N-acetyl-human LF (20-37)-amide] (Ac-CFQWQRNMRKVRGPPVSC-NH2; disulfide 1-18) | 96.1 | 93.7 | 18 | 9.8 | 7.7 | 4.5 | 3.9 | – | – | – | –
2 | CC[C@H](C)[C@@H]1NC(=O)[C@H](CO)NC(=O)[C@@H]2CCCN2C(=O)[C@H](C)NC(=O)CNC(=O)[C@H](CC(C)C)NC(=O)[C@H](CCCCN)NC(=O)[C@H](CCCCN)NC(=O)[C@H](CCSC)NC(=O)[C@H](CCCNC(=N)N)NC(=O)[C@H](Cc2c[nH]c3ccccc23)NC(=O)[C@H](CCC(N)=O)NC(=O)[C@H](Cc2c[nH]c3ccccc23)NC(=O)[C@H](CCCNC(=N)N)NC(=O)[C@H](CCCNC(=N)N)NC(=O)[C@@H](NC(=O)[C@H](CCCCN)NC(=O)[C@@H](N)Cc2ccccc2)CSSC[C@@H](C(=O)N[C@H](C(=O)N[C@@H](CCCNC(=N)N)C(=O)N[C@@H](CCCNC(=N)N)C(=O)N[C@@H](C)C(=O)N[C@@H](Cc2ccccc2)C(=O)O)C(C)C)NC(=O)[C@H]([C@@H](C)O)NC1=O [Bovine LF (17-41)] | 95.7 | 93.7 | 17 | 7.9 | 5.9 | 2.7 | 1.0 | 30 | 60 | 100 | 100
3 | CC[C@H](C)[C@@H]1NC(=O)[C@H](CO)NC(=O)[C@@H]2CCCN2C(=O)[C@H](C)NC(=O)CNC(=O)[C@H](CC(C)C)NC(=O)[C@H](CCCCN)NC(=O)[C@H](CCCCN)NC(=O)[C@H](CCSC)NC(=O)[C@H](CCCNC(=N)N)NC(=O)[C@H](Cc2c[nH]c3ccccc23)NC(=O)[C@H](CCC(N)=O)NC(=O)[C@H](Cc2c[nH]c3ccccc23)NC(=O)[C@H](CCCNC(=N)N)NC(=O)[C@H](CCCNC(=N)N)NC(=O)[C@@H](NC(C)=O)CSSC[C@@H](C(N)=O)NC(=O)[C@H]([C@@H](C)O)NC1=O [Ac-bovine LF (19-36)-NH2, N-acetyl-bovine LF (19-36)-amide] (Ac-CRRWQWRMKKLGAPSITC-NH2; disulfide 1-18) | 96.5 | 87.5 | 17 | 8.8 | 6.1 | 5.0 | 3.6 | – | – | – | –
4 | CC[C@H](C)[C@H](NC(=O)[C@H](CS)NC(=O)[C@H](CO)NC(=O)[C@@H](NC(=O)[C@@H]1CCCN1C(=O)[C@@H]1CCCN1C(=O)CNC(=O)[C@H](CCCNC(=N)N)NC(=O)[C@@H](NC(=O)[C@H](CCCCN)NC(=O)[C@H](CCCNC(=N)N)NC(=O)[C@H](CCSC)NC(=O)[C@H](CC(N)=O)NC(=O)[C@H](CCCNC(=N)N)NC(=O)[C@H](CCC(N)=O)NC(=O)[C@H](Cc1c[nH]c2ccccc12)NC(=O)[C@H](CCC(N)=O)NC(=O)[C@H](Cc1ccccc1)NC(=O)[C@H](CS)NC(=O)[C@H](CCCCN)NC(=O)[C@@H](N)[C@@H](C)O)C(C)C)C(C)C)C(=O)N[C@@H](CCCCN)C(=O)N[C@@H](CCCNC(=N)N)C(=O)N[C@@H](CC(=O)O)C(=O)N[C@@H](CO)C(=O)O [[20CysSH, 37CysSH] Human LF (18-42)] (H-TKCFQWQRNMRKVRGPPVSCIKRDS-OH) | 100.0 | 96.0 | 17 | 8.5 | 6.2 | 3.1 | 1.4 | – | – | – | –
5 | CC[C@H](C)[C@H](NC(=O)[C@H](CO)NC(=O)[C@@H]1CCCN1C(=O)[C@H](C)NC(=O)CNC(=O)[C@H](CC(C)C)NC(=O)[C@H](CCCCN)NC(=O)[C@H](CCCCN)NC(=O)[C@H](CCSC)NC(=O)[C@H](CCCNC(=N)N)NC(=O)[C@H](Cc1c[nH]c2ccccc12)NC(=O)[C@H](CCC(N)=O)NC(=O)[C@H](Cc1c[nH]c2ccccc12)NC(=O)[C@H](CCCNC(=N)N)NC(=O)[C@H](CCCNC(=N)N)NC(=O)[C@H](CS)NC(=O)[C@H](CCCCN)NC(=O)[C@@H](N)Cc1ccccc1)C(=O)N[C@H](C(=O)N[C@@H](CS)C(=O)N[C@H](C(=O)N[C@@H](CCCNC(=N)N)C(=O)N[C@@H](CCCNC(=N)N)C(=O)N[C@@H](C)C(=O)N[C@@H](Cc1ccccc1)C(=O)O)C(C)C)[C@@H](C)O [[19 CysSH, 36 CysSH] Bovine LF (17-41)] | 100.0 | 92.0 | 19 | 8.3 | 6.4 | 2.9 | 1.2 | – | – | – | –
6 | Bovine LF: bovine lactoferrin, an iron-binding protein secreted in milk (CRRWQWRMKKLGAPSITC) | 95.7 | 87.5 | 18 | 8.0 | 6.2 | 4.8 | 3.6 | – | – | – | –
